Assay results: US9713616B2, “Pharmaceutical compositions comprising L-leucovorin” (Spectrum Pharmaceuticals, Inc., priority 2012, dated 2017)

Assays:
Assay type in all cases: physicochemical
[1] = Example 1: dissolved concentration after about one hour of sonication, then stirring at 5° C.; conditions: sonicated about one hour, stirred at 5° C.
Experimental: L-leucovorin calcium (Merck) or racemic leucovorin calcium (Sigma) was added to water or aqueous sodium chloride (0.83%) and sonicated for about one hour. The mixtures were then stirred for about 20 hours at 5° C. The concentration of dissolved L-leucovorin calcium or racemic leucovorin calcium was determined at 15 min., 30 min., 1 hour, and 20 hours after sonication began.

[2] = Example 4: dissolved concentration after 1 hour of sonication, then stirring at 25° C.; conditions: sonicated 1 hour, stirred at 25° C.
Experimental: L-leucovorin calcium (Merck) or racemic leucovorin calcium (Sigma) was added to water or aqueous sodium chloride (0.83%) and sonicated for 1 hour. The mixture was then stirred for an additional 19 hours 25° C. The concentration of dissolved L-leucovorin calcium or racemic leucovorin calcium was determined at 15 min., 30 min., 1 hour, or 20 hours after stirring began.

[3] = Example 2: dissolved concentration after sonication at 40° C., then stirring at 5° C. for 20 hours; conditions: sonicated at 40° C., stirred at 5° C.
Experimental: L-leucovorin calcium (Merck) or racemic leucovorin calcium (USP) was added to water or aqueous sodium chloride (0.83%) and sonicated at 40° C. to dissolve the L-leucovorin calcium or racemic leucovorin calcium. The solutions were then stirred at 5° C. for 20 hours. The concentration of dissolved L-leucovorin calcium or racemic leucovorin calcium was determined at 2 hours and 20 hours after stirring began.

[4] = Example 3: dissolved concentration after sonication at 40° C., stirring at 5° C., nitrogen purge and sealed vial at 2 hours; conditions: sonicated at 40° C., stirred at 5° C.
Experimental: L-leucovorin calcium (Merck) or racemic leucovorin (USP) calcium was added to water or aqueous sodium chloride (0.83%) and sonicated at 40° C. to dissolve the L-leucovorin calcium or racemic leucovorin calcium. The solutions were then stirred at 5° C. for 15 hours. At 2 hours, the solutions were purged with nitrogen gas and placed in a sealed vial. The concentration of dissolved L-leucovorin calcium or racemic leucovorin calcium was determined at two hours and 15 hours after sonication began.

[5] = Example 5: dissolved concentration after sonication at 40° C. for about half an hour, then stirring at 25° C. for 20 hours; conditions: sonicated at 40° C. about half an hour, stirred at 25° C.
Experimental: L-leucovorin calcium (Merck) or racemic leucovorin calcium (USP) was added to water or aqueous sodium chloride (0.83%) and sonicated at 40° C. for about half an hour. The mixture was then stirred at 25° C. for 20 hours. The concentration of dissolved L-leucovorin calcium or racemic leucovorin calcium was determined at two hours and 20 hours.

[6] = Example 6: dissolved concentration after sonication at 40° C. for one hour, stirring at 25° C., nitrogen purge and sealed vial after 2 hours; conditions: sonicated at 40° C. one hour, stirred at 25° C.
Experimental: L-leucovorin calcium (Merck) or racemic leucovorin (USP) calcium was added to water or aqueous sodium chloride (0.83%) and sonicated at 40° C. for one hour to dissolve the L-leucovorin calcium or racemic leucovorin calcium. The solutions were then stirred at 25° C. for an additional hour. After 2 hours, the solutions were purged with nitrogen and placed in a sealed vial. The mixtures were then stirred for an additional 18 hours. The concentration of dissolved L-leucovorin calcium or racemic leucovorin calcium was determined at two hours and 20 hours after sonication began.

Row | Structure (SMILES) | Assay (concentration of dissolved compound) ([1]; H2O, 15 min.) | Assay (concentration of dissolved compound) ([1]; H2O, 30 min.) | Assay (concentration of dissolved compound) ([1]; H2O, 1 hr) | Assay (concentration of dissolved compound) ([1]; H2O, 20 hrs) | Assay (concentration of dissolved compound) ([1]; NaCl (0.83%), 15 min.) | Assay (concentration of dissolved compound) ([1]; NaCl (0.83%), 30 min.) | Assay (concentration of dissolved compound) ([1]; NaCl (0.83%), 1 hr) | Assay (concentration of dissolved compound) ([1]; NaCl (0.83%), 20 hrs) | Assay (concentration of dissolved compound) ([2]; H2O, 15 min.) | Assay (concentration of dissolved compound) ([2]; H2O, 30 min.) | Assay (concentration of dissolved compound) ([2]; H2O, 1 hr) | Assay (concentration of dissolved compound) ([2]; H2O, 20 hrs) | Assay (concentration of dissolved compound) ([2]; NaCl (0.83%), 15 min.) | Assay (concentration of dissolved compound) ([2]; NaCl (0.83%), 30 min.) | Assay (concentration of dissolved compound) ([2]; NaCl (0.83%), 1 hr) | Assay (concentration of dissolved compound) ([2]; NaCl (0.83%), 20 hrs) | Assay (concentration of dissolved compound) ([3]; H2O, 20 hrs) | Assay (concentration of dissolved compound) ([3]; NaCl (0.83%), 20 hrs) | Assay (concentration of dissolved compound) ([4]; H2O, 2 hrs) | Assay (concentration of dissolved compound) ([4]; H2O, 15 hrs) | also measured
1 | Nc1nc(=O)c2c([nH]1)NCC(CNc1ccc(C(=O)N[C@@H](CCC(=O)[O-])C(=O)[O-])cc1)N2C=O.[Ca+2] (mixture of isomers) [Sigma Leucovorin Calcium, racemic leucovorin calcium] | 16.7 mg/mL | 22.0 mg/mL | 15.8 mg/mL | 3.3 mg/mL | 22.6 mg/mL | 22.9 mg/mL | 23.2 mg/mL | 7.4 mg/mL | 52.9 mg/mL | 53.3 mg/mL | 50.1 mg/mL | 9.0 mg/mL | 42.1 mg/mL | 41.9 mg/mL | 39.6 mg/mL | 14.2 mg/mL | – | – | – | – | –
2 | Nc1nc(=O)c2c([nH]1)NCC(CNc1ccc(C(=O)N[C@@H](CCC(=O)[O-])C(=O)[O-])cc1)N2C=O.[Ca+2] (mixture of isomers) [USP Leucovorin Calcium, racemic leucovorin calcium] | – | – | – | – | – | – | – | – | – | – | – | – | – | – | – | – | 4.2 mg/mL | 7.2 mg/mL | 3.6 mg/mL | 3.8 mg/mL | Assay (concentration of dissolved compound) ([4]; NaCl (0.83%), 2 hrs): 8.4 mg/mL; Assay (concentration of dissolved compound) ([4]; NaCl (0.83%), 15 hrs): 8.6 mg/mL; Assay (concentration of dissolved compound) ([5]; H2O, 20 hrs): 13.4 mg/mL; Assay (concentration of dissolved compound) ([5]; NaCl (0.83%), 20 hrs): 17.4 mg/mL; Assay (concentration of dissolved compound) ([6]; H2O, 2 hrs): 10.1 mg/mL; Assay (concentration of dissolved compound) ([6]; H2O, 20 hrs): 10.8 mg/mL; Assay (concentration of dissolved compound) ([6]; NaCl (0.83%), 2 hrs): 16.1 mg/mL; Assay (concentration of dissolved compound) ([6]; NaCl (0.83%), 20 hrs): 17.1 mg/mL
3 | Nc1nc(=O)c2c([nH]1)NCC(CNc1ccc(C(=O)NC(CCC(=O)O)C(=O)O)cc1)N2C=O [L-Leucovorin, L-leucovorin calcium] | 7.5 mg/mL | 8.4 mg/mL | 8.0 mg/mL | 11.9 mg/mL | 9.6 mg/mL | 10.0 mg/mL | 13.4 mg/mL | 17.4 mg/mL | 14.9 mg/mL | 15.1 mg/mL | 16.1 mg/mL | 23.6 mg/mL | 20.2 mg/mL | 20.4 mg/mL | 21.6 mg/mL | 32.4 mg/mL | 26.2 mg/mL | 39.6 mg/mL | 40.4 mg/mL | 21.2 mg/mL | Assay (concentration of dissolved compound) ([3]; H2O, 2 hrs): 31.9 mg/mL; Assay (concentration of dissolved compound) ([3]; NaCl (0.83%), 2 hrs): 42.3 mg/mL; Assay (concentration of dissolved compound) ([4]; NaCl (0.83%), 2 hrs): 49.2 mg/mL; Assay (concentration of dissolved compound) ([4]; NaCl (0.83%), 15 hrs): 35.6 mg/mL; Assay (concentration of dissolved compound) ([5]; H2O, 2 hrs): 31.9 mg/mL; Assay (concentration of dissolved compound) ([5]; H2O, 20 hrs): 31.1 mg/mL; Assay (concentration of dissolved compound) ([5]; NaCl (0.83%), 2 hrs): 42.3 mg/mL; Assay (concentration of dissolved compound) ([5]; NaCl (0.83%), 20 hrs): 42.1 mg/mL; Assay (concentration of dissolved compound) ([6]; H2O, 2 hrs): 40.4 mg/mL; Assay (concentration of dissolved compound) ([6]; H2O, 20 hrs): 42.3 mg/mL; Assay (concentration of dissolved compound) ([6]; NaCl (0.83%), 2 hrs): 49.2 mg/mL; Assay (concentration of dissolved compound) ([6]; NaCl (0.83%), 20 hrs): 53.1 mg/mL
